From the NIST ThermoML archive (doi:10.1016/j.fluid.2018.01.026)
Numbers after ± are expanded uncertainties.

Details: 101.33 kPa, Liquid, Vibrating tube method

Row | mass density (293.15 K) | mass density (298.15 K) | mass density (303.15 K) | mass density (308.15 K) | mass density (313.15 K) | mass density (318.15 K) | mass density (323.15 K) | mass density (328.15 K) | mass density (333.15 K) | Structure (SMILES)
1 | 1080.13 ± 6.3 kg/m3 | 1074.92 ± 6.3 kg/m3 | 1069.67 ± 6.2 kg/m3 | 1064.31 ± 6.1 kg/m3 | 1058.71 ± 6.1 kg/m3 | 1053.13 ± 6 kg/m3 | 1047.55 ± 5.9 kg/m3 | 1042.01 ± 5.9 kg/m3 | 1036.62 ± 5.8 kg/m3 | CC(=O)CO [acetol]
2 | 900.48 ± 1 kg/m3 | 894.36 ± 1 kg/m3 | 888.19 ± 1 kg/m3 | 881.98 ± 1 kg/m3 | 875.73 ± 1 kg/m3 | – | – | – | – | CCOC(C)=O [ethyl acetate]
3 | 887.8 ± 1 kg/m3 | 882.19 ± 1 kg/m3 | 876.56 ± 1 kg/m3 | 870.9 ± 1 kg/m3 | 865.21 ± 1 kg/m3 | – | – | – | – | CCCOC(C)=O [propyl ethanoate]

Row | Structure (SMILES) | mass density (293.15 K) | mass density (298.15 K) | mass density (303.15 K) | mass density (308.15 K) | mass density (313.15 K) | mass density (318.15 K) | mass density (323.15 K) | mass density (328.15 K) | mass density (333.15 K)
4 | CCCCOC(C)=O [butyl ethanoate] | 880.61 ± 1 kg/m3 | 875.45 ± 1 kg/m3 | 870.27 ± 1 kg/m3 | 865.08 ± 1 kg/m3 | 859.86 ± 1 kg/m3 | – | – | – | –
